Measured values from patent publication US8648037B2, “Macrocyclic proline derived HCV serine protease inhibitors” (priority 2010, dated 2014).

Assays:
[1] = tested on: HCV genotype 1a (1a-H77) stable subgenomic replicon; assay: genotype 1a Huh-7 stable replicon assay (luciferase reporter); assay type: cell-based, hepatitis C virus (HCV); conditions: Hepatitis C virus, 5% FBS
[2] = tested on: HCV genotype 1b Con1 stable subgenomic replicon; assay: genotype 1b Con1 stable replicon assay (luciferase reporter); assay type: cell-based, hepatitis C virus (HCV); conditions: Hepatitis C virus
[3] = tested on: HCV genotype 1a wild-type transient replicon; assay: genotype 1a wild-type transient replicon assay; assay type: cell-based, hepatitis C virus (HCV); conditions: Hepatitis C virus
[4] = tested on: HCV genotype 1a R155K variant transient replicon; assay: genotype 1a R155K transient replicon assay; assay type: cell-based, hepatitis C virus (HCV); conditions: Hepatitis C virus
[5] = tested on: HCV genotype 1a D168E variant transient replicon; assay: genotype 1a D168E transient replicon assay; assay type: cell-based, hepatitis C virus (HCV); conditions: Hepatitis C virus
[6] = tested on: HCV genotype 1a D168V variant transient replicon; assay: genotype 1a D168V transient replicon assay; assay type: cell-based, hepatitis C virus (HCV); conditions: Hepatitis C virus
[7] = tested on: HCV genotype 1b wild-type transient replicon; assay: genotype 1b wild-type transient replicon assay; assay type: cell-based, hepatitis C virus (HCV); conditions: Hepatitis C virus
[8] = tested on: HCV genotype 1b R155K variant transient replicon; assay: genotype 1b R155K transient replicon assay; assay type: cell-based, hepatitis C virus (HCV); conditions: Hepatitis C virus
[9] = tested on: HCV genotype 1b D168V variant transient replicon; assay: genotype 1b D168V transient replicon assay; assay type: cell-based, hepatitis C virus (HCV); conditions: Hepatitis C virus
[10] = tested on: HCV genotype 3a wild-type transient replicon; assay: genotype 3a wild-type transient replicon assay; assay type: cell-based, hepatitis C virus (HCV); conditions: Hepatitis C virus
[11] = tested on: HCV genotype 3a A166T variant transient replicon; assay: genotype 3a A166T transient replicon assay; assay type: cell-based, hepatitis C virus (HCV); conditions: Hepatitis C virus
[12] = tested on: HCV genotype 3a Q168R variant transient replicon; assay: genotype 3a Q168R transient replicon assay; assay type: cell-based, hepatitis C virus (HCV); conditions: Hepatitis C virus
[13] = tested on: HCV genotype 3a S138T variant transient replicon; assay: genotype 3a S138T transient replicon assay; assay type: cell-based, hepatitis C virus (HCV); conditions: Hepatitis C virus
HCV R155K variants = conditions: Bartels 2008, Lu 2004, Zhou 2007; cited from earlier work
[14] = tested on: HCV genotype 3a wild-type stable replicon (chimeric, NS3 gene from genotype 3a isolates); assay: genotype 3a wild-type stable replicon assay; assay type: cell-based, hepatitis C virus (HCV); conditions: Hepatitis C virus
HCV = conditions: after R155K (danoprevir) or R155K/D168V (vaniprevir) variants detected; cited from earlier work

Compound	EC50 [1]	EC50 [2]	EC50 [3]	EC50 [4]	EC50 [5]	EC50 [6]	EC50 [7]	EC50 [8]	EC50 [9]	EC50 [10]	EC50 [11]	EC50 [12]	EC50 [13]	resistance conferred by R155K variants (HCV R155K variants)	EC50 [14]	viral load in patients receiving treatment (HCV)
CC[C@@H]1C[C@]1(NC(=O)[C@@H]1C[C@@H]2CN1C(=O)[C@H](C(C)(C)C)NC(=O)O[C@@H]1CCC[C@H]1OC/C=C/C(F)(F)c1nc3ccccc3nc1O2)C(=O)NS(=O)(=O)C1(C)CC1 [Example 8]	< 1 nM	1 to 10 nM	0.1 to 1 nM	< 0.1 nM	< 1 nM	1 to 10 nM	< 1 nM	< 1 nM	1 to 100 nM	10 to 100 nM	100 to 500 nM	100 to 1000 nM	100 to 1000 nM	–	–	–
CC[C@@H]1C[C@]1(NC(=O)[C@@H]1C[C@@H]2CN1C(=O)[C@H](C(C)(C)C)NC(=O)O[C@@H]1CCC[C@H]1OC/C=C/C(F)(F)c1nc3ccccc3nc1O2)C(=O)NS(=O)(=O)C1CC1 [Example 4]	< 1 nM	1 to 10 nM	0.1 to 1 nM	0.1 to 1 nM	< 1 nM	10 to 1000 nM	< 1 nM	< 1 nM	1 to 100 nM	10 to 100 nM	100 to 500 nM	100 to 1000 nM	100 to 1000 nM	–	–	–
COc1ccc2c(O[C@@H]3C[C@H]4C(=O)N[C@]5(C(=O)O)C[C@H]5/C=C\CCCCC[C@H](NC(=O)OC5CCCC5)C(=O)N4C3)cc(-c3csc(NC(C)C)n3)nc2c1 [BILN 2061]	–	–	–	–	–	–	–	–	–	–	–	–	–	high-level resistance	–	–
C=C[C@@H]1C[C@]1(NC(=O)[C@@H]1C[C@@H]2CN1C(=O)[C@H](C(C)(C)C)NC(=O)O[C@@H]1CCC[C@H]1OC/C=C/C(F)(F)c1nc3ccccc3nc1O2)C(=O)NS(=O)(=O)C1(C)CC1 [Example 5]	< 1 nM	1 to 10 nM	< 0.1 nM	< 0.1 nM	< 1 nM	< 1 nM	< 1 nM	< 1 nM	< 1 nM	< 10 nM	< 100 nM	< 100 nM	–	–	< 10 nM	–
CC(C)(C)[C@@H]1NC(=O)O[C@@H]2CCC[C@H]2OC/C=C/C(F)(F)c2nc3ccccc3nc2O[C@@H]2C[C@@H](C(=O)N[C@]3(C(=O)NS(=O)(=O)C4CC4)C[C@H]3C(F)F)N(C2)C1=O [Example 2]	1 to 10 nM	1 to 10 nM	0.1 to 1 nM	< 0.1 nM	< 1 nM	< 1 nM	< 1 nM	< 1 nM	1 to 100 nM	< 10 nM	< 100 nM	100 to 1000 nM	100 to 1000 nM	–	< 10 nM	–
CC(C)(C)OC(=O)N[C@H]1CCCCC/C=C\[C@@H]2C[C@@]2(C(=O)NS(=O)(=O)C2CC2)NC(=O)[C@@H]2C[C@@H](OC(=O)N3Cc4cccc(F)c4C3)CN2C1=O [danoprevir]	–	–	–	–	–	–	–	–	–	–	–	–	–	high-level resistance	–	Viral load rebound
CC[C@@H]1C[C@]1(NC(=O)[C@@H]1C[C@@H]2CN1C(=O)[C@H](C(C)(C)C)NC(=O)OCC(C)(C)CCCCc1cccc3c1CN(C3)C(=O)O2)C(=O)NS(=O)(=O)C1CC1 [vaniprevir]	–	–	–	–	–	–	–	–	–	–	–	–	–	–	–	viral load rebound
C=C[C@@H]1C[C@]1(NC(=O)[C@@H]1C[C@@H]2CN1C(=O)[C@H](C(C)(C)C)NC(=O)O[C@@H]1CCC[C@H]1OC/C=C/C(F)(F)c1nc3ccccc3nc1O2)C(=O)NS(=O)(=O)C1CC1 [Example 1]	< 1 nM	1 to 10 nM	0.1 to 1 nM	0.1 to 1 nM	< 1 nM	1 to 10 nM	< 1 nM	< 1 nM	< 1 nM	10 to 100 nM	100 to 500 nM	100 to 1000 nM	100 to 1000 nM	–	< 10 nM	–
CC(C)(C)[C@@H]1NC(=O)O[C@@H]2CCC[C@H]2OC/C=C/C(F)(F)c2nc3ccccc3nc2O[C@@H]2C[C@@H](C(=O)N[C@]3(C(=O)NS(=O)(=O)C4(C)CC4)C[C@H]3C(F)F)N(C2)C1=O [Example 6]	< 1 nM	1 to 10 nM	< 0.1 nM	< 0.1 nM	< 1 nM	< 1 nM	< 1 nM	< 1 nM	< 1 nM	< 10 nM	< 100 nM	< 100 nM	< 100 nM	–	< 10 nM	–
